From patent publication US12492181B2, “Gem-disubstituted piperidine melanocortin subtype-2 receptor (MC2R) antagonists and uses thereof” (Crinetics Pharmaceuticals, Inc., priority 2019, dated 2025)

Target: T1, hMC2 receptor (crude hMC2R membranes from CRE-bla-CHO-K1 cells stably expressing hMC2 receptor and hMRAP accessory protein) (Homo sapiens, UniProt Q01718)
T1 construct: crude membrane fractions
Assay: hMC2 membrane binding assay ([125I]ACTH (1-39) Tyr23, SPA)
Conditions: displacement of 0.2 nM [125I]ACTH (1-39) Tyr23 from hMC2R membranes, 1.5 hours at room temperature; read-out: MC2R binding potency
Outline: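 Crude membranes from CRE-bla-CHO-K1 cells stably co-expressing hMC2R and hMRAP, premixed with WGA PVT SPA beads in pH 7.4 HEPES buffer (5 mM MgCl2, 1 mM CaCl2, 0.20% BSA, protease inhibitors). Compounds compete with [125I]ACTH(1-39) Tyr23, read by scintillation. Ki from non-linear regression.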

T1 sequence (Q01718 whole entry): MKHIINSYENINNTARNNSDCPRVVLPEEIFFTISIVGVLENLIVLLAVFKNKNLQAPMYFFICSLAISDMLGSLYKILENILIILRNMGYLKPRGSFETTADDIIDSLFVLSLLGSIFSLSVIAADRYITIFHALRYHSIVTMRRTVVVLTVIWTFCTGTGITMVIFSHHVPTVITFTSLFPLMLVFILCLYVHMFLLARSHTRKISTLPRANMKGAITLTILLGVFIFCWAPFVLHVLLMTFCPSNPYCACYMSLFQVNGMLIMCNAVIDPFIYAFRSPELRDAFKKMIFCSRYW
T1 sequence (Q8TCY5 whole entry partner): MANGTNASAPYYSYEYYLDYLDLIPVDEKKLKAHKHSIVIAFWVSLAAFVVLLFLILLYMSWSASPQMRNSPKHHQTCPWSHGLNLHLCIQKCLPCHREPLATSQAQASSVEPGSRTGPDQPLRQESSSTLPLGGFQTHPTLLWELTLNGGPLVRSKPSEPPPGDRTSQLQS

| Compound | Ki |
| --- | --- |
| CCOc1ccc(F)cc1-c1ccc(C2(C(=O)N[C@@H]3CCN(C)C3)CCN(c3ccc(C(F)(F)F)cc3C#N)CC2)cn1 [Compound 1-69, 1-[2-cyano-4-(trifluoromethyl)phenyl]-4-[6-(2-ethoxy-5-fluorophenyl)pyridin-3-yl]-N-[(3R)-1-methylpyrrolidin-3-yl]piperidine-4-carboxamide] | < 10 nM |
| CCOc1ncccc1-c1ccc(C2(NC(=O)C3CN(C)C3)CCN(c3ccc(C(F)(F)F)cc3C#N)CC2)cc1 [Compound 2-16, N-{1-[2-cyano-4-(trifluoromethyl)phenyl]-4-[4-(2-ethoxypyridin-3-yl)phenyl]piperidin-4-yl}-1-methylazetidine-3-carboxamide] | 10 to 100 nM |
| CN1CC[C@@H](NC(=O)C2(c3ccc(-c4cccnc4OC(F)F)nc3)CCN(c3ccc(C(F)(F)F)cc3C#N)CC2)C1 [Compound 1-85, 1-[2-cyano-4-(trifluoromethyl)phenyl]-4-[2′-(difluoromethoxy)-[2,3′-bipyridin]-5-yl]-N-[(3R)-1-methylpyrrolidin-3-yl]piperidine-4-carboxamide] | < 10 nM |
| CCOc1ncccc1-c1ccc(C2(C(=O)N[C@H]3CCN(C)C3)CCN(c3ccc(Cl)cc3C#N)CC2)cn1 [Compound 1-34, 1-(4-chloro-2-cyanophenyl)-4-{2′-ethoxy-[2,3′-bipyridin]-5-yl}-N-[(3S)-1-methylpyrrolidin-3-yl]piperidine-4-carboxamide] | < 10 nM |
| COc1ccccc1-c1ccc(C2(C(=O)N[C@H]3CCN(C)C3)CCN(c3ccc(C(F)(F)F)cc3C#N)CC2)nn1 [Compound 1-183, 1-[2-cyano-4-(trifluoromethyl)phenyl]-4-[6-(2-methoxyphenyl)pyridazin-3-yl]-N-[(3S)-1-methylpyrrolidin-3-yl]piperidine-4-carboxamide] | < 10 nM |
| CCOc1ncccc1-c1ncc(C2(C(=O)N[C@@H]3CCN(C)C3)CCN(c3ccc(C(F)(F)F)cc3C#N)CC2)cn1 [Compound 1-107, 1-[2-cyano-4-(trifluoromethyl)phenyl]-4-[2-(2-ethoxypyridin-3-yl)pyrimidin-5-yl]-N-[(3R)-1-methylpyrrolidin-3-yl]piperidine-4-carboxamide] | < 10 nM |
| CC(C)CCn1nccc1-c1ccc(C2(C(=O)N[C@@H]3CCN(C)C3)CCN(c3ccc(C(F)(F)F)cc3C#N)CC2)cn1 [Compound 1-70, 1-[2-cyano-4-(trifluoromethyl)phenyl]-4-{6-[1-(3-methylbutyl)-1H-pyrazol-5-yl]pyridin-3-yl}-N-[(3R)-1-methylpyrrolidin-3-yl]piperidine-4-carboxamide] | 10 to 100 nM |
| CCOc1ncccc1-c1ncc(C2(C(=O)N[C@@H](C)CNC)CCN(c3ccc(Cl)cc3C#N)CC2)cc1F [Compound 1-323, 1-(4-chloro-2-cyanophenyl)-4-{2′-ethoxy-3-fluoro-[2,3′-bipyridin]-5-yl}-N-[(2S)-1-(methylamino)propan-2-yl]piperidine-4-carboxamide] | < 10 nM |
| COc1ccccc1-c1ccc(C2(C(=O)N[C@@H]3CNC[C@@H]3F)CCN(c3ccc(C(F)(F)F)cc3C#N)CC2)cn1 [Compound 1-237, 1-[2-cyano-4-(trifluoromethyl)phenyl]-N-[(3R,4S)-4-fluoropyrrolidin-3-yl]-4-[6-(2-methoxyphenyl)pyridin-3-yl]piperidine-4-carboxamide] | < 10 nM |
| CN1CC[C@H](NC(=O)C2(c3ccc(-c4cccn4C4CC4)nc3)CCN(c3ccc(C(F)(F)F)cc3C#N)CC2)C1 [Compound 1-158, 1-[2-cyano-4-(trifluoromethyl)phenyl]-4-[6-(1-cyclopropyl-1H-pyrrol-2-yl)pyridin-3-yl]-N-[(3S)-1-methylpyrrolidin-3-yl]piperidine-4-carboxamide] | < 10 nM |
| CCOc1ncccc1-c1ccc(C2(C(=O)NC[C@H](C)N)CCN(c3ccc(C(F)(F)F)cc3C#N)CC2)cn1 [Compound 1-16, N-[(2S)-2-aminopropyl]-1-[2-cyano-4-(trifluoromethyl)phenyl]-4-{2′-ethoxy-[2,3′-bipyridin]-5-yl}piperidine-4-carboxamide] | < 10 nM |
| CCOc1ccccc1-c1ccc(C2(C(=O)N[C@H]3CCN(C)C3)CCN(c3ccc(F)cc3C#N)CC2)cn1 [Compound 1-96, 1-(2-cyano-4-fluorophenyl)-4-[6-(2-ethoxyphenyl)pyridin-3-yl]-N-[(3S)-1-methylpyrrolidin-3-yl]piperidine-4-carboxamide] | < 10 nM |

Results, then the compound that gave them:

| Ki | Compound |
| --- | --- |
| < 10 nM | CCOc1ncccc1-c1ccc(C2(C(=O)N[C@H]3CCN(C)C3)CCN(c3ccc(C(F)(F)F)cc3C#N)CC2)cn1 [Compound 1-11, 1-[2-cyano-4-(trifluoromethyl)phenyl]-4-{2′-ethoxy-[2,3′-bipyridin]-5-yl}-N-[(3S)-1-methylpyrrolidin-3-yl]piperidine-4-carboxamide] |
| < 10 nM | CCOc1ccccc1-c1ccc(C2(C(=O)NC3CN(C)C3)CCN(c3ccc(Cl)cc3C#N)CC2)cn1 [Compound 1-93, 1-(4-chloro-2-cyanophenyl)-4-[6-(2-ethoxyphenyl)pyridin-3-yl]-N-(1-methylazetidin-3-yl)piperidine-4-carboxamide] |
| < 10 nM | COc1c(F)cccc1-c1ccc(C2(C(=O)N[C@@H]3CCN(C)C3)CCN(c3ccc(C(F)(F)F)cc3C#N)CC2)cn1 [Compound 1-82, 1-[2-cyano-4-(trifluoromethyl)phenyl]-4-[6-(3-fluoro-2-methoxyphenyl)pyridin-3-yl]-N-[(3R)-1-methylpyrrolidin-3-yl]piperidine-4-carboxamide] |
| 10 to 100 nM | CN1CCC[C@H]1CNC(=O)C1(c2ccc(-c3cccn3C)nc2)CCN(c2ccc(C(F)(F)F)cc2C#N)CC1 [Compound 1-229, 1-[2-cyano-4-(trifluoromethyl)phenyl]-4-[6-(1-methyl-1H-pyrrol-2-yl)pyridin-3-yl]-N-{[(2S)-1-methylpyrrolidin-2-yl]methyl}piperidine-4-carboxamide] |
| < 10 nM | CCOc1ncccc1-c1ccc(C2(C(=O)N[C@@H]3CCN(C)C3)CCN(c3ccc(C(F)(F)F)cc3C#N)CC2)cc1F [Compound 1-75, 1-[2-cyano-4-(trifluoromethyl)phenyl]-4-[4-(2-ethoxypyridin-3-yl)-3-fluorophenyl]-N-[(3R)-1-methylpyrrolidin-3-yl]piperidine-4-carboxamide] |
| < 10 nM | CCOc1ncccc1-c1ccc(C2(NC(=O)CCNC)CCN(c3ccc(C(F)(F)F)cc3C#N)CC2)cn1 [Compound 2-5, N-{1-[2-cyano-4-(trifluoromethyl)phenyl]-4-{2′-ethoxy-[2,3′-bipyridin]-5-yl}piperidin-4-yl}-3-(methylamino)propanamide] |
| 10 to 100 nM | CN1CC[C@@H](NC(=O)C2(c3ccc(-c4ccccc4C(C)(F)F)nc3)CCN(c3ccc(C(F)(F)F)cc3C#N)CC2)C1 [Compound 1-84, 1-[2-cyano-4-(trifluoromethyl)phenyl]-4-{6-[2-(1,1-difluoroethyl)phenyl]pyridin-3-yl}-N-[(3R)-1-methylpyrrolidin-3-yl]piperidine-4-carboxamide] |
| < 10 nM | CCOc1ncccc1-c1ncc(C2(C(=O)N[C@H]3CCN(C)C3)CCN(c3ccc(C(F)(F)F)cc3C#N)CC2)cc1F [Compound 1-109, 1-[2-cyano-4-(trifluoromethyl)phenyl]-4-{2′-ethoxy-3-fluoro-[2,3′-bipyridin]-5-yl}-N-[(3S)-1-methylpyrrolidin-3-yl]piperidine-4-carboxamide] |
| < 10 nM | CN1CC[C@H](NC(=O)C2(c3ccc(-c4cccn4C)nn3)CCN(c3ccc(C(F)(F)F)cc3Cl)CC2)C1 [Compound 1-169, 1-[2-chloro-4-(trifluoromethyl)phenyl]-4-[6-(1-methyl-1H-pyrrol-2-yl)pyridazin-3-yl]-N-[(3S)-1-methylpyrrolidin-3-yl]piperidine-4-carboxamide] |
| < 10 nM | COc1ccc(C)cc1-c1ccc(C2(C(=O)N[C@@H]3CCN(C)C3)CCN(c3ccc(C(F)(F)F)cc3C#N)CC2)cn1 [Compound 1-130, 1-[2-cyano-4-(trifluoromethyl)phenyl]-4-[6-(2-methoxy-5-methylphenyl)pyridin-3-yl]-N-[(3R)-1-methylpyrrolidin-3-yl]piperidine-4-carboxamide] |
| 10 to 100 nM | CN1CC[C@@H](NC(=O)C2(c3ccc(-c4cccc5c4OC(F)(F)O5)nc3)CCN(c3ccc(C(F)(F)F)cc3C#N)CC2)C1 [Compound 1-67, 1-[2-cyano-4-(trifluoromethyl)phenyl]-4-[6-(2,2-difluoro-2H-1,3-benzodioxol-4-yl)pyridin-3-yl]-N-[(3R)-1-methylpyrrolidin-3-yl]piperidine-4-carboxamide] |
| 10 to 100 nM | Cn1cccc1-c1ccc(C2(C(=O)N[C@H]3C[C@@H](N)C3)CCN(c3ccc(C(F)(F)F)cc3C#N)CC2)cn1 [Compound 1-233, 1-[2-cyano-4-(trifluoromethyl)phenyl]-4-[6-(1-methyl-1H-pyrrol-2-yl)pyridin-3-yl]-N-[(1S,3S)-3-aminocyclobutyl]piperidine-4-carboxamide] |
| < 10 nM | CCOc1ccccc1-c1ccc(C2(NC(=O)[C@@H]3CCN(C)C3)CCN(c3ccc(C(F)(F)F)cc3C#N)CC2)cn1 [Compound 2-33, (3R)—N-{1-[2-cyano-4-(trifluoromethyl)phenyl]-4-[6-(2-ethoxyphenyl)pyridin-3-yl]piperidin-4-yl}-1-methylpyrrolidine-3-carboxamide] |
| 10 to 100 nM | CN1CC[C@@H](NC(=O)C2(c3ccc(-c4ccc(C#N)n4C)nc3)CCN(c3ccc(C(F)(F)F)cc3C#N)CC2)C1 [Compound 1-153, 4-[6-(5-cyano-1-methyl-1H-pyrrol-2-yl)pyridin-3-yl]-1-[2-cyano-4-(trifluoromethyl)phenyl]-N-[(3R)-1-methylpyrrolidin-3-yl]piperidine-4-carboxamide] |
| 10 to 100 nM | CCOc1ncccc1-c1ccc(C2(NC(=O)O[C@@H]3CCN(C)C3)CCN(c3ccc(C(F)(F)F)cc3C#N)CC2)cc1 [Compound 2-12, (3R)-1-methylpyrrolidin-3-yl N-{1-[2-cyano-4-(trifluoromethyl)phenyl]-4-[4-(2-ethoxypyridin-3-yl)phenyl]piperidin-4-yl}carbamate] |
